According to ChEMBL document CHEMBL3301361, “Experimental in vitro DMPK and physicochemical data on a set of publicly disclosed compounds”:
≈ marks a conversion by molar mass, not a printed value.

Columns and labels:
physchem [1] = conditions: octan-1-ol/water
in vitro [2] = conditions: human, plasma
in vitro [3] = conditions: human
in vitro [4] = conditions: hepatocytes
physchem [5] = experiment: physchem
in vitro [6] = conditions: SD, HW or BN, rat, plasma
physchem [7] = experiment: physchem; remark: listed apart in the source
physchem [8] = conditions: pH 7.4 buffer
in vitro [9] = conditions: Beagle, dog, plasma
in vitro [10] = conditions: human, hepatocytes

Structure (SMILES)	logD (physchem [1]; pH 7.4, LogD7.4)	pKa (physchem [5])	also measured
CCC(CC)NC(=O)c1nnn(-c2ccccc2)c1NS(=O)(=O)c1ccc(C)cc1	0.46	3.3	fraction unbound at 5 h (in vitro [2]; PPB): 0.0072; microsomal CLint (in vitro [3]; liver microsomes): 35 µL/min/mg; hepatocyte CLint (in vitro [4]): 56 µL/min/1e6 cells
CC1=NN(C(=O)CCS)C(C(=O)O)S1 (centres undefined)	–	2.4	–
CCC(CC)NC(=O)c1c(C)nn(C(C)C)c1NS(=O)(=O)c1ccc(C)cc1	0.92	4.7	fraction unbound at 5 h (in vitro [2]; PPB): 0.035; fraction unbound at 5 h (in vitro [6]): 0.089
Cc1ccc2c(c1)c(Sc1ccc(Cl)cc1)c(C)n2CC(=O)O	2.18	4.1	microsomal CLint (in vitro [3]; liver microsomes): 7 µL/min/mg
CCC(Oc1ccc(C(F)(F)F)cc1-c1ccc(S(=O)(=O)CC)cc1C)C(=O)O (centres undefined)	0.31	3.4	–
Cc1ccccc1S(=O)(=O)NC(=O)N1CCC(N2CCC(Oc3ccc(Cl)c(Cl)c3)CC2)CC1	1.71	3.4	fraction unbound at 5 h (in vitro [2]; PPB): 0.105
CCS(=O)(=O)c1ccc(-c2cc(C(F)(F)F)ccc2OC(C)(C)C(=O)O)c(C)c1	–	3.2	–
Cc1cn(Cc2ccccc2)c(=O)[nH]c1=O	–	9.4	logD (physchem [1]; pH 7.4): 1.19
Nc1ccc(S(=O)(=O)Nc2nccs2)cc1 [SULFATHIAZOLE]	-0.37	7.01	–
O=C(NCC12CC3CC(CC(C3)C1)C2)c1cc(CN2CCNCC2)ccc1Cl	1.84	–	pKa (physchem [7]): 8.85; solubility thermodynamic (physchem [8]): 74.1 µM (≈ 29.8 µg/mL); fraction unbound at 5 h (in vitro [2]; PPB): 0.0872; fraction unbound at 5 h (in vitro [6]): 0.062; fraction unbound at 5 h (in vitro [9]): 0.157; microsomal CLint (in vitro [3]; microsomes): 18 µL/min/mg; hepatocyte CLint (in vitro [4]): 4 µL/min/1e6 cells; hepatocyte CLint (in vitro [10]): 4.46 µL/min/1e6 cells
CCCCc1oc2ccc(NS(C)(=O)=O)cc2c1C(=O)c1ccc(OCCCN(CCCC)CCCC)cc1 [DRONEDARONE]	–	7.69	fraction unbound at 5 h (in vitro [2]; PPB): 0.0009
CCS(=O)(=O)c1ccc(-c2cc(C(F)(F)F)ccc2CCC(=O)O)c(C)c1	–	4.2	fraction unbound at 5 h (in vitro [2]; PPB): 0.0256; microsomal CLint (in vitro [3]; liver microsomes): < 3 µL/min/mg
CN(C)c1ccc(S(=O)(=O)NC(=O)N2CCC(N3CCC(Oc4ccc(Cl)c(Cl)c4)CC3)CC2)cc1	1.7	6.1	fraction unbound at 5 h (in vitro [2]; PPB): 0.0017; microsomal CLint (in vitro [3]; liver microsomes): 10.5 µL/min/mg
O=C(O)c1cc(=O)c2cc(Cl)ccc2o1	–	< 2	–
C[C@@H](C(=O)NS(C)(=O)=O)c1ccc(OS(=O)(=O)C(F)(F)F)cc1 [LADARIXIN]	–	3.1	microsomal CLint (in vitro [3]; liver microsomes): < 3 µL/min/mg; hepatocyte CLint (in vitro [4]): < 3 µL/min/1e6 cells
O=C(O)COc1ccc([N+](=O)[O-])cc1-c1ccccc1	-0.69	2.7	fraction unbound at 5 h (in vitro [2]; PPB): 0.0041
COc1nc(Cl)c(Cl)nc1NS(=O)(=O)c1ccc(Cl)s1	–	3.6	fraction unbound at 5 h (in vitro [2]; PPB): 0.0008; microsomal CLint (in vitro [3]; liver microsomes): 10 µL/min/mg
Nc1nc2nc(SCc3ccccc3)[nH]c(=O)c2s1	–	7.1	microsomal CLint (in vitro [3]; liver microsomes): < 3 µL/min/mg
CCS(=O)(=O)c1ccc(-c2cc(C(F)(F)F)ccc2OCC(=O)O)c(Cl)c1	–	3.3	fraction unbound at 5 h (in vitro [6]): 0.0313; microsomal CLint (in vitro [3]; liver microsomes): < 3 µL/min/mg
CCCc1c2nccc(Cl)c2cc2c(=O)cc(C(=O)O)oc12	–	2.5	–

Structure (SMILES)	logD (physchem [1]; pH 7.4, LogD7.4)	pKa (physchem [5])	also measured
O=C(O)c1ccc(-c2ccc(Cl)c(C(=O)NCC34CC5CC(CC(C5)C3)C4)c2)cc1	2.48	4.1	fraction unbound at 5 h (in vitro [2]; PPB): 0.0077; fraction unbound at 5 h (in vitro [6]): 0.0074
Nc1ccc(S(=O)(=O)Nc2ncccn2)cc1 [SULFADIAZINE]	–	6.29	–
O=C(O)c1ccc(CN2CCC(CN3CCC(Oc4ccc(Cl)c(Cl)c4)CC3)CC2)cc1	–	3.5	microsomal CLint (in vitro [3]; liver microsomes): < 3 µL/min/mg
Cn1c(C(=O)O)c(CCCOc2cccc3ccccc23)c2ccccc21	2.99	4.01	–
N#Cc1sccc1NS(=O)(=O)c1ccc(Cl)cc1	–	5.1	–
CC(=O)Nc1ccc(O)cc1 [ACETAMINOPHEN]	0.25	9.48	fraction unbound at 5 h (in vitro [2]): 0.734
Cn1nnnc1SCC1=C(C(=O)O)N2C(=O)[C@@H](NC(=O)[C@H](O)c3ccccc3)[C@H]2SC1 [CEFAMANDOLE]	–	3.29	–
CN(C(=O)c1c(O)c2ccccc2n(C)c1=O)c1ccccc1 [ROQUINIMEX]	–	4.2	–
CCC(CC)n1nc(C)c(C(=O)N[C@@H](C)C(C)(C)C)c1NS(=O)(=O)c1ccc(C)cc1	1.88	4.6	fraction unbound at 5 h (in vitro [2]; PPB): 0.02; fraction unbound at 5 h (in vitro [6]): 0.0818
Cc1ccc(S(=O)(=O)Nc2c(C(=O)N[C@@H](C)C(C)(C)C)c(C)nn2C(C)(C)C)cc1	1.84	5.5	solubility thermodynamic (physchem [8]): 513 µM (≈ 223 µg/mL); microsomal CLint (in vitro [3]; microsomes): 37 µL/min/mg
NS(=O)(=O)c1cc(C2(O)NC(=O)c3ccccc32)ccc1Cl (centres undefined) [CHLORTHALIDONE]	–	9.11	logD (physchem [1]; pH 7.4): 0.97; solubility thermodynamic (physchem [8]): 501 µM (≈ 170 µg/mL)
C(=C\c1nn[nH]n1)/c1ccccc1	-0.4	4.5	–
Cc1nnc(NS(=O)(=O)c2ccc(N)cc2)s1 [SULFAMETHIZOLE]	-1.33	5.4	fraction unbound at 5 h (in vitro [2]; PPB): 0.0647
O=C(O)c1ccccc1Nc1cccc(C(F)(F)F)c1 [FLUFENAMIC ACID]	–	3.56	logD (physchem [1]; pH 7.4): 2.01
CCOC(=O)N1CCC(c2cc(=O)n(-c3ccccc3)[nH]2)CC1	–	6.8	–
O=C(Nc1ccc([N+](=O)[O-])cc1O)Nc1ccccc1Br	3.9	7.7	fraction unbound at 5 h (in vitro [2]; PPB): 0.0027
COc1ccc2c(=O)cc(C(=O)O)oc2c1	–	< 2	–
O=C(O)c1cc(=O)c2ccccc2[nH]1 [TRANSTORINE]	–	2.5	–
O=C(O)CCc1nc(-c2ccccc2)c(-c2ccccc2)o1 [OXAPROZIN]	–	3.87	fraction unbound at 5 h (in vitro [2]; PPB): 0.0005; fraction unbound at 5 h (in vitro [6]): 0.0024
CC1=C(CC(=O)O)c2cc(F)ccc2/C1=C\c1ccc([S+](C)[O-])cc1 (centres undefined)	-0.01	3.9	microsomal CLint (in vitro [3]; liver microsomes): < 3 µL/min/mg

Structure (SMILES)	logD (physchem [1]; pH 7.4, LogD7.4)	pKa (physchem [5])	also measured
CC1(C)S[C@@H]2[C@H](NC(=O)Cc3ccccc3)C(=O)N2[C@H]1C(=O)O [PENICILLIN G]	–	3.32	–
Cc1ncc2n1-c1ccc(Cl)cc1C(c1ccccc1F)=NC2 [MIDAZOLAM]	–	–	pKa (physchem [7]): 6.11; solubility thermodynamic (physchem [8]): 72.4 µM (≈ 23.6 µg/mL); fraction unbound at 5 h (in vitro [2]): 0.0175; fraction unbound at 5 h (in vitro [6]): 0.0457; fraction unbound at 5 h (in vitro [9]): 0.02; hepatocyte CLint (in vitro [4]): 121 µL/min/1e6 cells; hepatocyte CLint (in vitro [10]): 32.4 µL/min/1e6 cells
CCCc1c2c(cc3c(=O)cc(C(=O)O)oc13)CCCC2 [PROCROMIL]	–	< 2	–
CC1(C)S[C@@H]2[C@H](NC(=O)[C@H](NC(=O)N3CCNC3=O)c3ccccc3)C(=O)N2[C@H]1C(=O)O [AZLOCILLIN]	–	2.41	–
O=C(O)c1cc(=O)c2ccccc2o1 [CHROMOCARB]	–	< 2	–
Cc1ccc(S(=O)(=O)NC(=O)NN2CCCCCC2)cc1 [TOLAZAMIDE]	0.01	5.8	–
N#Cc1cccc(S(=O)(=O)NC[C@@H](O)CN2CCC(Oc3ccc(Cl)c(Cl)c3)CC2)c1	–	10.1	–
CC1=NS(=O)(=O)c2cc(Cl)ccc2N1 [DIAZOXIDE]	1.05	8.42	–
O=C(O)/C=C(/c1ccccc1)C(F)(F)F	–	2.41	–
Cc1nnc(C(=O)NC(C)(C)c2nc(C(=O)NCc3ccc(F)cc3)c(O)c(=O)n2C)o1	–	3.97	–
N#Cc1cn(Cc2ccco2)c(=O)[nH]c1=O	–	6.1	microsomal CLint (in vitro [3]; liver microsomes): < 3 µL/min/mg
Cn1c(=O)c2nn[nH]c2n(C)c1=O	–	4.4	–
COCCNc1nc(N)c2nc(O)n(Cc3ccccc3)c2n1	2.18	10	fraction unbound at 5 h (in vitro [2]; PPB): 0.208; microsomal CLint (in vitro [3]; liver microsomes): 5.5 µL/min/mg
CCn1nc(C(=O)O)c(=O)c2cc3c(cc21)OCO3 [CINOXACIN]	–	4.36	–
CCNC(=O)C[C@@H]1N=C(c2ccc(Cl)cc2)c2cc(OC)ccc2-n2c(C)nnc21 [MOLIBRESIB]	–	–	pKa (physchem [7]): 2.1; fraction unbound at 5 h (in vitro [2]): 0.24; fraction unbound at 5 h (in vitro [6]): 0.314; fraction unbound at 5 h (in vitro [9]): 0.324; microsomal CLint (in vitro [3]; microsomes): 14.1 µL/min/mg; hepatocyte CLint (in vitro [4]): 10.2 µL/min/1e6 cells
O=C(O)c1coc2ccccc2c1=O	–	4	–
N#Cc1c(O)nc(N)nc1-c1ccccc1	–	6.52	fraction unbound at 5 h (in vitro [2]; PPB): 0.0366; fraction unbound at 5 h (in vitro [6]): 0.0366
Cc1onc(-c2c(F)cccc2Cl)c1C(=O)N[C@@H]1C(=O)N2[C@@H]1SC(C)(C)[C@@H]2C(=O)O [FLOXACILLIN]	–	2.46	–
